The supplement of paper PMC12513837

Compound: CC(=O)N1CCc2c(c(N3CCCc4cc(-c5cnn(C)c5)c(C(F)F)cc43)nn2C2CCC(CN3CCN(c4ccc5c(c4)C(=O)N(C4CCC(=O)NC4=O)C5=O)CC3)CC2)C1 [CBPD-409]
Assay: AUC of viability dose-response curve (relative to vehicle, 8 doses up to 10 µM) (fraction); higher = less sensitive (more viable); extreme values may be limits of the assay
Procedure: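 PRISM multiplexed pooled barcoded cell line viability screen at the Broad Institute, 887 cancer cell lines treated with CBPD-409 (p300/CBP PROTAC degrader) at 8 concentrations in threefold dilution, top dose 10 µM. The read-out is the area under the dose-response curve of relative viability versus vehicle (n=3). AUC < 0.3 is called strongly sensitive and AUC > 0.8 resistant.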

Test System	AUC of viability dose-response curve
SKGT4_OESOPHAGUS	0.575
SKMEL3_SKIN	0.818
HSKTC_OVARY	1
TE617T_SOFT_TISSUE	0.851
OCIAML5_HAEMATOPOIETIC_AND_LYMPHOID_TISSUE	0.461
NCIH226_LUNG	0.519
CAL12T_LUNG	0.645
SKNAS_AUTONOMIC_GANGLIA	1
TT_OESOPHAGUS	0.566
HEC50B_ENDOMETRIUM	0.851
HT55_LARGE_INTESTINE	0.509
COLO668_LUNG	0.615
HUH6_LIVER	1
J82_URINARY_TRACT	0.921
MOLM13_HAEMATOPOIETIC_AND_LYMPHOID_TISSUE	0.356
TOLEDO_HAEMATOPOIETIC_AND_LYMPHOID_TISSUE	0.416
RCM1_LARGE_INTESTINE	1
HUCCT1_BILIARY_TRACT	0.983
MDAMB436_BREAST	0.505
EBC1_LUNG	0.537
CW2_LARGE_INTESTINE	1
LXF289_LUNG	0.522
SW954_CERVIX	0.702
OVISE_OVARY	1

Test System	AUC of viability dose-response curve
KMS11_HAEMATOPOIETIC_AND_LYMPHOID_TISSUE	0.497
PATU8988T_PANCREAS	0.499
ANGMCSS_CENTRAL_NERVOUS_SYSTEM	1
KNS81_CENTRAL_NERVOUS_SYSTEM	1
T3M10_LUNG	0.64
BT474_BREAST	0.643
TGW_AUTONOMIC_GANGLIA	0.673
UMUC11_URINARY_TRACT	0.736
A172_CENTRAL_NERVOUS_SYSTEM	0.797
SKNO1_HAEMATOPOIETIC_AND_LYMPHOID_TISSUE	0.247
FLO1_OESOPHAGUS	0.731
KARPAS299_HAEMATOPOIETIC_AND_LYMPHOID_TISSUE	1
SNUC4_LARGE_INTESTINE	0.595
AN3CA_ENDOMETRIUM	0.693
CHAGOK1_LUNG	0.748
EFO27_OVARY	1
DEL_HAEMATOPOIETIC_AND_LYMPHOID_TISSUE	1
SNB75_CENTRAL_NERVOUS_SYSTEM	1
H376_UPPER_AERODIGESTIVE_TRACT	0.862
SNU201_CENTRAL_NERVOUS_SYSTEM	0.382
MC116_HAEMATOPOIETIC_AND_LYMPHOID_TISSUE	0.804
BECKER_CENTRAL_NERVOUS_SYSTEM	0.88
YD10B_UPPER_AERODIGESTIVE_TRACT	1
NCIH1568_LUNG	0.958

Test System	AUC of viability dose-response curve
RVH421_SKIN	0.929
SBC5_LUNG	0.687
SCC3_HAEMATOPOIETIC_AND_LYMPHOID_TISSUE	1
ISTMES1_PLEURA	0.481
HCC38_BREAST	0.323
PANC1_PANCREAS	0.999
NCIH2172_LUNG	0.62
KP4_PANCREAS	0.625
RPMI7951_SKIN	1
P12ICHIKAWA_HAEMATOPOIETIC_AND_LYMPHOID_TISSUE	0.739
A2780_OVARY	0.625
MCC26_SKIN	0.98
M059K_CENTRAL_NERVOUS_SYSTEM	0.673
VMCUB1_URINARY_TRACT	0.443
MDAMB175VII_BREAST	0.999
VAL_HAEMATOPOIETIC_AND_LYMPHOID_TISSUE	0.56
MKN7_STOMACH	0.517
KNS62_LUNG	0.953
NIHOVCAR3_OVARY	1
WERIRB1_AUTONOMIC_GANGLIA	1
ALLSIL_HAEMATOPOIETIC_AND_LYMPHOID_TISSUE	0.917
PATU8988S_PANCREAS	0.253
EFE184_ENDOMETRIUM	0.79
KYSE520_OESOPHAGUS	0.797

Test System	AUC of viability dose-response curve
94T778_SOFT_TISSUE	0.951
HT144_SKIN	1
GSU_STOMACH	0.326
HPAFII_PANCREAS	0.919
PACADD161_PANCREAS	0.652
NCIH2452_PLEURA	1
OCIC4P_OVARY	0.99
COLO680N_OESOPHAGUS	0.653
UACC257_SKIN	1
TE10_OESOPHAGUS	0.501
639V_URINARY_TRACT	0.515
SKGII_ENDOMETRIUM	0.894
JOPACA1_PANCREAS	1
COV362_OVARY	0.887
SNU119_OVARY	1
CAOV3_OVARY	0.648
HCC4006_LUNG	1
SNU308_BILIARY_TRACT	0.95
EOL1_HAEMATOPOIETIC_AND_LYMPHOID_TISSUE	0.207
T98G_CENTRAL_NERVOUS_SYSTEM	0.8
LS1034_LARGE_INTESTINE	0.295
BICR78_UPPER_AERODIGESTIVE_TRACT	0.547
HEYA8_OVARY	1
COV434_OVARY	0.556

Test System	AUC of viability dose-response curve
PEDS005TSUSP_KIDNEY	0.309
EFO21_OVARY	0.764
NCIH1703_LUNG	0.78
MIAPACA2_PANCREAS	1
JAR_PLACENTA	0.238
SNU245_BILIARY_TRACT	0.719
CHLA10_BONE	0.97
COLO800_SKIN	0.67
C8166_HAEMATOPOIETIC_AND_LYMPHOID_TISSUE	0.546
SNU216_STOMACH	1
PLCPRF5_LIVER	1
GOS3_CENTRAL_NERVOUS_SYSTEM	0.79
SF126_CENTRAL_NERVOUS_SYSTEM	0.521
T47D_BREAST	0.593
SG231_BILIARY_TRACT	0.46
SNU213_PANCREAS	0.933
A1207_CENTRAL_NERVOUS_SYSTEM	1
H357_UPPER_AERODIGESTIVE_TRACT	0.815
HUG1N_STOMACH	1
CAPAN2_PANCREAS	1
NCIH28_PLEURA	1
SNU182_LIVER	0.274
L33_PANCREAS	0.692
HCC1195_LUNG	1

Test System	AUC of viability dose-response curve
NCIH1651_LUNG	1
SNU601_STOMACH	0.563
WSUDLCL2_HAEMATOPOIETIC_AND_LYMPHOID_TISSUE	0.505
KE39_STOMACH	1
HKA1_SKIN	1
ONCODG1_OVARY	1
HDMB03_CENTRAL_NERVOUS_SYSTEM	0.453
SCC9_UPPER_AERODIGESTIVE_TRACT	0.687
HEC59_ENDOMETRIUM	0.677
CAL148_BREAST	1
KNS42_CENTRAL_NERVOUS_SYSTEM	0.413
BT16_SOFT_TISSUE	1
NCIH322_LUNG	0.574
SF539_CENTRAL_NERVOUS_SYSTEM	1
SW1271_LUNG	0.564
HEC1B_ENDOMETRIUM	0.998
SCABER_URINARY_TRACT	0.714
KP3_PANCREAS	1
MDAPCA2B_PROSTATE	0.266
PACADD119_PANCREAS	0.991
CMLT1_HAEMATOPOIETIC_AND_LYMPHOID_TISSUE	0.666
CBAGPN_BONE	0.79
MOLT16_HAEMATOPOIETIC_AND_LYMPHOID_TISSUE	0.445
